{"source": "patent US8871751B2", "about": "“Compositions and methods relating to nuclear hormone and steroid hormone receptors including inhibitors of estrogen receptor alpha-mediated gene expression and inhibition of breast cancer” (The Board of Trustees of the University of Illinois, priority 2008, dated 2014)", "biological_target": "T1, human ERα binding to flcERE (Homo sapiens, UniProt P03372)", "T1 construct": "Full-length FLAG-tagged human ERα was expressed and purified as described previously (27); FLAG; made in house", "T1 sequence (P03372 1-595)": "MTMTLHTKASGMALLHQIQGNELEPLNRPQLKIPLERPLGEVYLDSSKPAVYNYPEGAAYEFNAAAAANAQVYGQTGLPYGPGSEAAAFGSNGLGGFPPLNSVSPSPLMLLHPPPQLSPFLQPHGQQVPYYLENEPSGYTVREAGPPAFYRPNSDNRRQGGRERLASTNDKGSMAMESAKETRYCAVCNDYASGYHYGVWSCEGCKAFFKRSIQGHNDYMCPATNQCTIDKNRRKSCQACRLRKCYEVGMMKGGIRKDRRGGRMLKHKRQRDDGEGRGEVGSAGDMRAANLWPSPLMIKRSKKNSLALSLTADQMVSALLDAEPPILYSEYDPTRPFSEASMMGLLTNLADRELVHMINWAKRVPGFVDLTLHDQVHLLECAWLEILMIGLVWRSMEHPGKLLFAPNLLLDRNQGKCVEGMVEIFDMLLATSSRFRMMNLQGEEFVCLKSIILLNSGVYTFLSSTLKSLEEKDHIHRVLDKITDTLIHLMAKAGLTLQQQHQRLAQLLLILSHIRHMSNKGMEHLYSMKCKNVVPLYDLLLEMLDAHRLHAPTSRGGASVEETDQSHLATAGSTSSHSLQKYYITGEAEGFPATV", "test": "FAMA: inhibition of ERα binding to flcERE", "settings": "for pIC50: FAMA; for inhibition of binding of ERα to the flcERE: 5 μM TPBM", "experimental": "Prior to screening, the 10 mM library stocks were diluted to produce replica libraries in 384-well plates containing each small molecule at 0.25 mM (in DMSO). In our initial studies we were concerned that forming the flcERE-ERα complex first and then adding the candidate small molecule inhibitors would miss small molecules that bind at the interface. We therefore screened using the “sequential” method in which the candidate small molecules were first incubated with ERα and followed by addition of the flcERE. The assay for binding of ERα to the flcERE is a modification of our earlier assay (27). Assays were carried out at room temperature in black wall 384-well microplates (Greiner/Bio-One) in a total volume of 10 μl in buffer containing 20 mM Tris pH 7.5, 10% glycerol, 0.2 mM EDTA, 2 mM DTT, 100 mM KCl, 0.5 ng/μl poly dl:dC, […] bovine serum albumin and 100 nM 17β-estradiol (E2). For high throughput screening, a master mix without ERα and probe was prepared at 4° C. The master mix was divided into 2 parts. ERα was added to one part to 5 nM in the final assays. 7 μl of the ERα-containing mix was then dispensed into each well of a 384-well plate on ice. 100 nl of the compounds being tested was then added using a pin-transporter (V & P Scientific, Inc, CA) to a final concentration of 2.5 μM. The samples were mixed using the pin-transporter and sedimented by centrifugation for 2 min. at 4° C. and incubated on ice for 10 min. The flcERE probe was added to the other aliquot of the mix to 1 nM. 3 μl of the mix containing the flcERE probe was added to each well containing ERα and the test compound. The samples were mixed using the pin-transporter, the plates were briefly centrifuged and incubated at room temperature for 10 min. and fluorescence anisotropy (FA) was measured using a BMG PheraStar (BMG Labtech) microplate reader (module: 485 520) with excitation at 485λ and emission at 520λ. To identify small molecules that were highly fluorescent, or quench fluorescence, fluorescence intensity was also measured.\nDose response curves for selected compounds were carried out as described for the HTS screen except that each well contained the indicated concentration of test compound. PR assays were carried out in the same buffer used for ERα assays and contained 1 nM flcPRE and 11 nM PR-B and 100 nM progesterone. The buffer used for AR was similar but also contained 5 μM ZnCl, 5 mM NaF, 0.6 μM CHAPS and 100 nM dihydrotestosterone. AR assays contained 1 nM flcARE and 50 nM full-length wild-type AR.", "key": {"[1]": {"settings": "binding to HRE, 5 concentrations 0.5-10 μM, sequential method, read-out: IC50 ERα"}}, "note": "pIC50: −log10 of the molar value. Several values for one entry are separate records, joined by “and”; a condition that tells them apart may be missing. Identical values can stand only once. Like-named read-outs stand apart in the source and are kept apart here.", "data": [{"smiles": "CN1CCC(C#N)c2ccccc21", "note": "(stereo not drawn) [Compound 1529]", "values": [{"measurement": "pIC50", "setting": "[1]", "value": 5.40}]}, {"smiles": "Cn1c(=O)c2nc(CSCc3ccccc3)[nH]c2n(C)c1=O", "note": "[Compound 95910, 8-Benzylsulfanylmethyl-1,3-dimethyl-3,7-dihydro-purine-2,6-dione]", "values": [{"measurement": "inhibition of binding of ERα to the flcERE", "setting": "absence of zinc", "value": "76±7", "unit": "%"}, {"measurement": "inhibition of binding of ERα to the flcERE", "setting": "presence of 50 μM zinc", "value": "68±6", "unit": "%"}, {"measurement": "pIC50", "setting": "[1]", "value": 5.52}, {"measurement": "pIC50", "setting": "read-out: IC50 for inhibition of ERα binding to the flcERE", "value": "~5.52 and 5.46"}]}, {"smiles": "CN(C)CCCn1c2c3ccccc3ccc2c2oc(=O)c3ccccc3c21", "note": "[Compound 638432]", "values": [{"measurement": "pIC50", "setting": "[1]", "value": 5.60}]}]}
